Key:
[1] = test system: HeLa cells undergoing dopamine-induced apoptosis; settings: 750 nM
Method: HeLa cells were plated on tissue culture plates at a density of 3×10^6 cells/10 cm dish, and grown in a DMEM medium containing 10% FCS, as described in A. The cells were then incubated at 37° C. overnight, and then the medium was replaced with a medium containing 2% FCS and 500 μM of dopamine. 18 hours later, the medium was aspirated and discarded, and 10 ml of Phosphate Buffered Saline pH 7.4 (PBS) were added to the culture dish. The cells which were detached from the culture dish into the PBS were collected. These cells represent advanced apoptotic cells. The remaining cells which were attached to the culture dish were trypsinized by the addition of 2 ml of trypsin for 2 minutes at 37° C., followed by the addition of 10 ml of a medium containing 10% of FCS. The cells were then washed with PBS containing 2% Bovine Serum Albumin (BSA), and resuspended in TBS containing 2% BSA (TBS-BSA). These cells were regarded as early apoptotic cells. […] Only non-treated cells that were attached to the culture dish were used as control cells for the FACS analysis.
A set of 3 different cell types was taken:
The incubation with the NST300 compounds or control compound was performed in a final volume of 100 μl TBS-BSA, 5 μg/ml of propidium iodide (PI) and 750 nM of the tested compound or the control compound.
PI is a red fluorescent dye that stains DNA. […] Only cells that are in advanced apoptotic stages, or cells that have already died by apoptosis or necrosis will be permeable to PI and will be stained with the dye. […] The cells were then washed in 500 μl of cold TBS-BSA and centrifugated as before. The cells were then suspended in 100 μl of TBS-BSA containing streptavidin conjugated to fluorescein (FITC). […] Thereafter, the cells were washed three times in TBS-BSA and were taken for FACS analysis.
The FACS analysis was performed on a Beckton-Dickinson cell sorter, using lysis II software. Excitation was at 488 nm and the emission or FITC detection was at 535 nm and for PI detection at 585 nm.

[2] = test system: clotting induced by negatively charged phospholipids in normal plasma; settings: 0.5-50 μM; control clotting time 40 seconds
Method: The ability of NST300 compounds to inhibit coagulaton catalyzed by negatively—charged phospholipids was evaluated in a standard coagulation test of the Russell viper venom (RVV) assay. The RVV reagent directly activates factor x present in the plasma, thus promoting prothrombinase complex formation. This reagent is widely used as a standard phospholipid responsive clotting test. (Thiagarajan et al., Blood, 1986; 869-874).
The RVV reagent kit, containing RVV and negatively charged phospholipids, from Gradipore, Australia was used. The reactions were started by mixing 100 μl of RVV reagent, and 100 μl of quality control plasma collected from normal individuals (commercially available from Instrumentation Laboratory, Italy). Clotting time was determined as the time-point beyond which the continuously mixed reaction ingredients in the test tube, could no longer be aspirated with a pasteur pipette. Clotting time was measured independently by two separate researchers.

[3] = test system: procoagulant activity of apoptotic HeLa S3 cells; settings: 0.5 μM
Method: In the standard APTT test, clot formation is triggered by recalcification of plasma and addition of cephalin, i.e. negatively-charged phospholipids. Time until clot formation was measured as described in Example 3. […] In the modified APTT test, used in the present study, the addition of negatively-charged phospholipids (cephalin) was replaced by addition of apoptotic cells.
The cultured medium was discarded, and cells that were loosely attached to the growing surface, were collected in PBS, as described in Example 2B. These cells were washed and resuspended in TBS, and were regarded as advanced apoptotic cells. Equal numbers of apoptotic or control non-treated cells (10^5) in a volume of 100 μl, were mixed with 100 μl of 25 mM of CaCl2 and the clotting time was measured. […] Inhibition of their procoagulant activity by NST300 compounds was tested following pre-incubation of apoptotic cells with the different NST300 compounds.
Pre-incubation of equal numbers of apoptotic or control non-treated cells (10^5) with NST300 compounds was for 10 minutes at room temperature in a final volume of 100 μl. The compounds were used at concentration of 0.5 μM. The results can be seen in FIG. 5a.

[4] = test system: thrombin generation on apoptotic HeLa cells
Method: One of the final steps of both intrinsic and extrinsic pathways of coagulation, is the generation of thrombin from prothrombin. Thrombin is the final protease generated in the sequence of coagulation reaction, and its activity entails conversion of fibrinogen to fibrin, that forms the clot. Generation of thrombin on the pro-coagulant surface of apoptotic cells was assayed (according to Bombeli T. et al., 1997, Blood 89(7), 2429-2442), by determining its activity, using the chromogenic substrate S-2366 (from Chromogenix, Sweden). Samples of pro-coagulant cells (HeLa cells treated with 500 μM of DA for 18 hours) were used for the assay.

BeWo cells = test system: BeWo cells
Method: (§1) Anti β2GPI antibodies are present in sera of APS patients. […] For cell-ELISA tests, HUVEC cells or BeWo cells (both at 40,000/well), were plated on 96 well tissue culture plates (Nunc) in 200 ul of the culture medium, and allowed to grow for 18-22 hours. Following 2 washes with Hepes buffer (10 mM Hepes pH, 8, 140 mM NaCl) and 5 min incubation with the culture medium, the wells were incubated for 3 hr with 10% of normal plasma in PBS (as a source of β2GPI protein), supplemented with 1/500 of goat anti-human Apolipoprotein-H (β2GPI) (Affinity Biologicals, Pa.) Parallel control wells were incubated with 10% of normal plasma from Ilex. Serial dilutions of NST compounds were prepared in plasma/PBS. Washes and development were as described for anti CL ELISA.

HUVEC cells = test system: HUVEC cells
Method: as §1

apoptotic hepatocytes = assay type: in vivo
Method: All animals were killed 2 hr after administration of antibody followed by organ removal. Heart, lung and liver were collected.
Formalin fixed paraffin-embedded tissues were sectioned (5 μm) for staining with Hematoxylin/Eosin or other techniques.
Endogenous peroxidase activity was blocked by incubation with 3% H2O2.
After washing with PBS, staining was developed with 3,3-diaminobenzidine tetrahydrochloride (DAB), and counterstained with Hematoxylin.
Liver sections from different lobes were used for detection of stained apoptotic cells compared to normal cells.
The percentage of apoptotic cells in the fields was estimated by evaluating parallel sections stained with Hematoxylin/Eosin. Analysis was performed blindly, since the pathologist performing the histological evaluation was unaware of the assignment of mice to the treatment or control group.

Myristate-KKKKKRFSFKKSFKLSGFSFKKNKKK (SEQUENCE ID NO. 2)-(biotin) [NST302]
binding intensity (FITC mean value) compared with NST301 ([1]; apoptotic cells): higher binding intensity
binding intensity: ratio of FITC mean value of apoptotic cells to that of control cells ([1]; early apoptotic cells, FIG. 3b): 9 fold
increase of clotting time by a factor as compared to control [2]: 3.1
effect on procoagulant effect of apoptotic cells ([3]; FIG. 5a): fully reversing
increase of clotting time by a factor ([3]; apoptotic cells): 2
delay factor of time needed to achieve 50% of thrombin activity ([4]; 25 μM): 2.25
time needed to achieve 50% of thrombin activity ([4]; 25 μM): 4.5 min
rate of thrombin activity and lag time for activating the reaction ([4]; 5-25 μM): delayed
concentration at which inhibition of thrombin generation is observed already ([4]; 5-25 μM tested): 5 µM
concentration of maximum effect of displacement of anti β2GPI (BeWo cells): 50 µM
blocking of binding to pro-coagulant surface of cells (BeWo cells; FIG. 6e): dramatic and significant ability to block binding
concentration of maximum effect of displacement of anti β2GPI (HUVEC cells): 50 µM
blocking of binding to pro-coagulant surface of cells (HUVEC cells; FIG. 6d): dramatic and significant ability to block binding
staining in normal hepatocytes (apoptotic hepatocytes; animals injected with NST302 only): never observed
staining of liver in anti-Fas treated mice (apoptotic hepatocytes; intravenous, 5 μM, avidin biotin peroxidase detection): observed at cytoplasma and cytoplasmatic border of apoptotic hepatocytes

From patent US6602852B1, “Basic peptides and pharmaceutical compositions containing same” (NST NeuroSurvival Technologies, Ltd., priority 1998, dated 2003)
